Measurements: ChEMBL document CHEMBL3639124, “Oxadiazole inhibitors of leukotriene production” (2013)

molecular target: T1, Arachidonate 5-lipoxygenase-activating protein (Homo sapiens, UniProt P20292); assay: Binding Assay: Compounds area assessed for the ability to bind to FLAP in a binding assay that measures compound-specific displacement of an iodinated (125I) FLAP inhibitor via a scintillaion proximity assay format (adapted from S. Charleson et. al., Mol. Pharmacol., 1992,41 873-879).
T1 sequence (P20292 whole entry): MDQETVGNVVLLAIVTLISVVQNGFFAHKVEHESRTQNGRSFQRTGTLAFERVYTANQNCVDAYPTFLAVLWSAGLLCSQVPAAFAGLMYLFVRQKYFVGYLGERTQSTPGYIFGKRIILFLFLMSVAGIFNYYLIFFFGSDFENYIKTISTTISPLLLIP

SMILES | IC50
COCCn1cc(-c2nc(C3(c4ccc(-c5cnc(N)nc5)nc4)CCC3)no2)cn1 | 17 nM
CN1CCN(c2cnc(-c3nc(C4(c5ccc(-c6cnc(N)nc6)nc5)CCC4)no3)cn2)CC1 | 1.8 nM
COCCNc1cnc(-c2nc(C3(c4ccc(-c5cnc(N)nc5)nc4)CCC3)no2)cn1 | 3.2 nM
CCNC(=O)Cn1cc(-c2nc(C3(c4ccc(-c5cnc(N)nc5)nc4)CCC3)no2)cn1 | 100 nM
COC(=O)[C@@H]1CN(c2ccc(-c3nc(C4(c5ccc(-c6cnc(N)nc6)nc5)CCC4)no3)cn2)CCN1 | 3.7 nM
Nc1ncc(-c2ccc(C3(c4noc(-c5ccc6[nH]ncc6c5)n4)CCC3)cn2)cn1 | 4 nM
CC(C)(C)NC(=O)Cn1cc(-c2nc(C3(c4ccc(-c5cnc(N)nc5)nc4)CCC3)no2)cn1 | 14 nM
CCNc1cnc(-c2nc(C3(c4ccc(-c5cnc(N)nc5)nc4)CCC3)no2)cn1 | 2.4 nM
N#CCn1cc(-c2nc(C3(c4ccc(-c5cnc(N)cn5)nc4)CCC3)no2)cn1 | 48 nM
